Assays:
[1] = molecular target: T1, acetyl-CoA carboxylase (ACC) (Rattus norvegicus, UniProt P11497); experiment: Measurement of ACC inhibition activity (14C-bicarbonate incorporation, ACC purified from rat liver); type: biochemical; conditions: 5.6 × 10^−6 M compound; ACC purified from SD rat liver
T1 construct: subjected to decapitation and bloodletting under ether anesthesia to quickly take out the liver; from tissue; host or cells: rat liver (male SD rat, fasted then fed a high-sucrose feed)
Method: After 2 days of fasting, a male SD rat of 12 weeks of age was allowed to feed on a high sucrose feed (67% sucrose, 17.1% casein, 9.8% cellulose, 5% sodium chloride, 0.1% choline chloride and 1% vitamins) for 2 days and then subjected to decapitation and bloodletting under ether anesthesia to quickly take out the liver. The thus obtained liver was sliced in an ice-cooled buffer A (225 mM mannitol, 75 mM sucrose, 10 mM Tris/HCl (pH 7.5), 0.05 mM EDTA-2Na, 5 mM potassium citrate, 2.5 mM MnCl2, 10 mg/l aprotinin, 10 mg/l leupeptin and 10 mg/l antitrypsin) and then, after removal of moisture, adjusted to 5 ml/g by adding the buffer A and homogenized for 4 minutes using Polytron homogenizer. This was centrifuged for 10 minutes at 1,000 g and then the resulting supernatant was subjected to 10 minutes of high speed centrifugation at 17,000 g.
Ammonium sulfate was added to the thus obtained supernatant to a final concentration of 35%, and the mixture was stirred for 45 minutes and then subjected to 10 minutes of high speed centrifugation at 17,000 g. The thus obtained precipitate was mixed with 100 ml of a buffer B (100 mM Tris/HCl (pH 7.5), 0.5 M NaCl, 1 mM EDTA-2Na, 0.1 mM DTT, 10% glycerol, 10 mg/l aprotinin, 10 mg/l leupeptin and 10 mg/l antitrypsin) and subjected to 20 minutes of ultracentrifugation at 40,000, and the resulting supernatant was dialyzed overnight against 150 volumes of a buffer C (100 mM Tris/HCl (pH 7.5), 0.5 M NaCl, 1 mM EDTA-2Na, 0.1 mM DTT and 10% glycerol) and then filtered through a 5 μm filter. The filtrate was applied to a biotin affinity column, washed with the buffer B and then eluted with the buffer B supplemented with 5 mM biotin.
2. Measurement of ACC Inhibition Activity
Each of the compounds produced in the Examples was dissolved in DMSO, and the solution was put into a glass vial, mixed with 250 μl of an ACC-containing reagent 1 (40 mM Tris/HCl (pH 7.5), 40 mM MgCl2, 40 mM sodium citrate, 2 mM DTT and 100 μg/ml fatty acid-free BSA),incubated at 37° C. for 30 minutes in a thermostatic chamber, cooled with ice, mixed with 250 μl of a reagent 2 (40 mM Tris/HCl (pH 7.5), 2 mM DTT, 8 mM ATP and 0.5 mM acetyl-CoA) containing 74 kBq of NaH^14CO3, again incubated at 37° C. for 10 minutes in a thermostatic chamber and then mixed with 0.1 ml of 1 N HCl to terminate the reaction. After complete removal of moisture in the glass vial under a reduced pressure, an emulsified scintillator (Cleasol I) was added to the glass vial, and the ^14C radioactivity was measured using a liquid scintillation counter. […]
Inhibition activity ratio (%)=(1−radioactivity when a drug to be tested is added/radioactivity when the drug to be rested is not added)×100

HepG2 cells = experiment: Measurement of intracellular fatty acid synthesis inhibition activity (FA biosynthesis from [14C]-glucose); type: cell-based; conditions: Homo sapiens, 3.0 × 10^−5 M compound, 3 hours culture with [14C]-glucose
Method: Measurement of Intracellular Fatty Acid Synthesis Inhibition Activity (FA Biosynthesis Inhibition Activity)
Each of the compounds produced in the Examples was dissolved in DMSO and added to an experimental culture medium (DMEM; 0.05 μg/ml insulin, 0.1 mg/ml glucose and 18.5 kBq/ml [^14C]-glucose). The HepG2 cells were adjusted to a density of 0.75×10^6 cells/ml, inoculated into a 12 well plate in an amount of 1 ml/well and cultured overnight at 37° C. in an atmosphere of 5% CO2 (culture medium: DMEM, […] and 10% FBS), and the resulting cells were washed twice with PBS(−) buffer, mixed with the experimental culture medium in an amount of 0.5 ml/well and then cultured at 37° C. for 3 hours in an atmosphere of 5% CO2. After the culturing, the cells were washed twice with ice-cooled PBS(−) buffer and peeled off, and lipids were extracted from the resulting cells with a lipid extraction solution (chloroform:methanol=2:1). The extract was mixed with 2.5 ml of ethanol and 0.1 ml of 33% potassium hydroxide and incubated at 70° C. for 1 hour. Lipids were again extracted from the reaction mixture, and the extract was applied to a silica gel thin layer plate. This was developed with a developing solution (hexane:diethyl ether:acetic acid=80:20:1) and then the fatty acid iodine-coloring part was collected to measure its radioactivity using a liquid scintillation counter. The inhibition activity % (3.0×10^−5 M) of each compound was calculated.

SMILES	melting point	inhibition at 5.6 µM [1]	inhibition at 30 µM (HepG2 cells)
CC(C)(C)C(=O)NS(=O)(=O)c1ccccc1NC(=O)c1cccc(OCc2ccc(C(C)(C)C)cc2)c1 [Example 12, N-[2-[3-(4-t-Butylbenzyloxy)benzamido]benzenesulfonyl]pivalamide]	193 to 194 °C		
CCCCCCCCCC(=O)NS(=O)(=O)c1ccccc1NC(=O)c1cccc(OCc2ccc(C(F)(F)F)cc2)c1 [Example 34, N-[2-[3-(4-Trifluoromethylbenzyloxy)benzamido]benzenesulfonyl]decanamide]	164 °C	81.3%	87.7%
COc1ccc(C(=O)NS(=O)(=O)c2ccccc2NC(=O)c2cccc(OCc3ccccc3)c2)cc1 [Example 6, N-[2-(3-Benzyloxybenzamido)benzenesulfonyl]-4-methoxybenzamide]	189 to 190 °C		
CCCCCCCCCC(=O)NS(=O)(=O)c1ccccc1NC(=O)c1cccc(OCc2ccc([N+](=O)[O-])cc2)c1 [Example 22, N-[2-[3-(4-Nitrobenzyloxy)benzamido]benzenesulfonyl]decananide]	145 to 148 °C	88.4%	95.2%
CC(C)(C)c1ccc(COc2cccc(C(=O)Nc3ccccc3S(=O)(=O)NC(=O)/C=C/c3ccccc3)c2)cc1 [Example 13, N-[2-[3-(4-t-Butylbenzyloxy)benzamido]benzenesulfonyl]cinnamamide]	110 to 111 °C	79.5%	38.1%
CCCCCCCCCC(=O)NS(=O)(=O)c1ccccc1NC(=O)c1ccc(C#Cc2ccccc2)cc1 [Example 40, N-[2-(4-Phenylethynylbenzamido)benzenesulfonyl]decanamide]	155 to 156 °C	76%	57.4%
O=C(Nc1ccccc1S(=O)(=O)NC(=O)c1cccc(OCc2ccccc2)c1)c1cccc(OCc2ccccc2)c1 [Example 1, N-[2-(3-Benzyloxybenzamido)benzenesulfonyl]-3-benzyloxybenzamide]	172 to 173 °C		
O=C(Nc1ccccc1S(=O)(=O)NC(=O)c1ccc([N+](=O)[O-])cc1)c1cccc(OCc2ccccc2)c1 [Example 5, N-[2-(3-Benzyloxybenzamido)benzenesulfonyl]-4-nitrobenzamide]	233 to 234 °C		
CC(=O)NS(=O)(=O)c1ccccc1NC(=O)c1ccc(C#Cc2ccccc2)cc1 [Example 38, N-[2-(4-Phenylethynylbenzamido)benzenesulfonyl]acetamide]	214 to 215 °C		
CCCCCC(=O)NS(=O)(=O)c1ccccc1NC(=O)c1cccc(OCc2ccc(OC)cc2)c1 [Example 24, N-[2-[3-(4-Methoxybenzyloxy)benzamido]benzenesulfonyl]hexanamide]	154 to 157 °C		
CCCCCCCOc1cccc(C(=O)Nc2ccccc2S(=O)(=O)NC(C)=O)c1 [Example 35, N-[2-(3-Heptyloxybenzamido)benzenesulfonyl]acetamide]	194 to 195 °C		
O=C(Nc1ccccc1S(=O)(=O)NC(=O)c1ccc(C(F)(F)F)cc1)c1cccc(OCc2ccccc2)c1 [Example 4, N-[2-(3-Benzyloxybenzamido)benzenesulfonyl]-4-trifluoromethylbenzamide]	220 to 221 °C		
O=C(NS(=O)(=O)c1ccccc1NC(=O)c1cccc(OCc2ccccc2)c1)Oc1ccccc1	163 to 164 °C		
CCCCCC(=O)NS(=O)(=O)c1ccccc1NC(=O)c1cccc(OCc2ccccc2)c1 [Example 8, N-[2-(3-Benzyloxybenzamido)benzenesulfonyl]-n-hexanamide]	133 to 134 °C		
CCCCCC(=O)NS(=O)(=O)c1ccccc1NC(=O)c1cccc(OCc2ccc([N+](=O)[O-])cc2)c1 [Example 21, N-[2-[3-(4-Nitrobenzyloxy)benzamido]benzenesulfonyl]hexanamide]	138 to 141 °C		
CC(C)=CC(=O)NS(=O)(=O)c1ccccc1NC(=O)c1ccc(C#Cc2ccccc2)cc1 [Example 42, 3-Methyl-N-[2-(4-phenylethynylbenzamido)benzenesulfonyl]-2-butenamide]	187 to 188 °C		
COc1ccc(COc2cccc(C(=O)Nc3ccccc3S(=O)(=O)NC(C)=O)c2)cc1 [Example 23, N-[2-[3-(4-methoxybenzyloxy)benzamido]benzenesulfonyl]acetamide]	114 to 117 °C		
CCCCCCCOc1cccc(C(=O)Nc2ccccc2S(=O)(=O)NC(=O)CCCCC)c1 [Example 36, N-[2-(3-Heptyloxybenzamido)benzenesulfonyl]hexanamide]	200 to 201 °C		
CC(=O)NS(=O)(=O)c1ccccc1NC(=O)c1cccc(OCc2ccccc2)c1 [Example 3, N-[2-(3-Benzyloxybenzamido)benzenesulfonyl]acetamide]	195 to 196 °C		
O=C(Nc1ccccc1S(=O)(=O)NC(=O)c1ccc(F)cc1F)c1cccc(OCc2ccccc2)c1 [Example 11, N-[2-(3-Benzyloxybenzamido)benzenesulfonyl]-2,4-difluorobenzamide]	208 to 209 °C		
CC(=O)NS(=O)(=O)c1ccccc1NC(=O)c1cccc(OCc2ccc(C(F)(F)F)cc2)c1 [Example 32, N-[2-[3-(4-Trifluoromethylbenzyloxy)benzamido]benzenesulfonyl]acetamide]	164 to 165 °C		
CC(C)(C)C(=O)NS(=O)(=O)c1ccccc1NC(=O)c1ccc(C#Cc2ccccc2)cc1 [Example 41, N-[2-(4-Phenylethynylbenzamido)benzenesulfonyl]pivalamide]	236 to 237 °C		
CCCCNC(=O)NS(=O)(=O)c1ccccc1NC(=O)c1cccc(OCc2ccccc2)c1	177 to 178 °C		
CCCCCC(=O)NS(=O)(=O)c1ccccc1NC(=O)c1cccc(OCC2CCCCC2)c1 [Example 27, N-[2-(3-Cyclohexylmethoxybenzamido)benzenesulfonyl]hexanamide]	112 to 113 °C		
CCCCCCCCNC(=O)NS(=O)(=O)c1ccccc1NC(=O)c1cccc(OCc2ccccc2)c1	124 to 125 °C		
CCCCCC(=O)NS(=O)(=O)c1ccccc1NC(=O)c1cccc(OCc2ccc(Cl)cc2)c1 [Example 18, N-[2-[3-(4-Chlorobenzyloxy)benzamido]benzenesulfonyl]hexanamide]	148 to 149 °C		
CC(=O)NS(=O)(=O)c1ccccc1NC(=O)c1cccc(OCc2ccc(C(C)(C)C)cc2)c1 [Example 29, N-[2-[3-(4-t-Butylbenzyloxy)benzamido]benzenesulfonyl]acetamide]	190 to 191 °C		
CCCCC/C=C\C/C=C\CCCCCCCC(=O)NS(=O)(=O)c1ccccc1NC(=O)c1cccc(OCc2ccccc2)c1 [Example 15, N-[2-(3-Benzyloxybenzamido)benzenesulfonyl]linolamide]		84.8%	30.6%

Source: US20030162818A1, “Acylsulfonamide derivative” (AJINOMOTO CO. INC., priority 1997, published 2003)
